The text below walks through data of PubChem BioAssay (NCI).

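These data come from cells grown in 96-well plates and exposed to compound for 48 hours at five concentrations. The concentration for 50% growth inhibition is given as GI50. At the TGI there is no net growth.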

Experiment in all cases: inhibition of tumour cell growth, NCI panel, 48 h
Experiment [1] has as its system ACHN renal.
Experiment [2] relates to KM12 colon.
The subject of experiment [3] is M14 melanoma.
Experiment [4] has as its system MOLT-4 leukemia.
Experiment [5] relates to NCI-H23 lung.
Experiment [6] concerns SF-539 CNS.
The test system of experiment [7] is SK-MEL-28 melanoma.
Experiment [8] relates to SR leukemia.
Experiment [9] relates to UACC-257 melanoma.

Turning to `CC1(C)OCC2OC3([C@@H]4OC(C)(C)O[C@H]4CO)OC(C)(C)OC3C2O1` (stereo partly specified), the TGI in [1], in experiment [2], in [3], in experiment [4], in experiment [5] and in experiment [6] was > 100 µM each time. The TGI in experiment [7], in experiment [8] and in [9] was > 100 µM in each case.
Turning to `CN1C(=O)N(C)C(O)C(Cl)(Br)C1=O` (stereo unspecified), the TGI in experiment [1], in [2], in experiment [3], in [4], in [5] and in experiment [6] was > 100 µM each time. Moreover, the TGI in experiment [7], in experiment [8] and in [9] was > 100 µM in each case.
In the case of `COc1ccc(-c2c3c(n(C4OC(CO)C(O)C(O)C4O)c(=S)c2C#N)CCC3)cc1` (stereo unspecified), the TGI is > 100 µM in experiment [1]; > 100 µM in experiment [2]; > 100 µM in experiment [3]; 85.4 µM in experiment [4]; > 100 µM in [5]; > 100 µM in experiment [6]. For the same molecule, the TGI in experiment [7], in [8] and in [9] was > 100 µM throughout.
`Cc1[nH]c(=O)nc(NCCNCCO)c1C(=O)Nc1cccc2cc3ccccc3cc12`: the TGI in [1], in experiment [2], in experiment [3], in experiment [4], in experiment [5] and in experiment [6] was > 100 µM in each case. For the same molecule, the TGI in experiment [7], in [8] and in [9] was > 100 µM in each case.
Turning to `O=[N+]([O-])c1ccc(NC(=S)N=Nc2c(O)[nH]c3ccc([N+](=O)[O-])cc23)cc1`, the TGI was 74 µM in [1]; 37.6 µM in experiment [2]; 41.9 µM in experiment [3]; > 100 µM in experiment [4]; 41.1 µM in [5]; > 100 µM in experiment [6]. In addition, the TGI is 80.7 µM in experiment [7], > 100 µM in experiment [8] and 50.3 µM in experiment [9].
As to `COc1ccccc1C1Nn2c(nc3ccccc3c2=O)N1c1ccc(C)cc1` (stereo unspecified), the TGI in experiment [1] stood at 16.7 µM; in experiment [2] it was 60.3 µM; in experiment [3] it was 26.4 µM; in experiment [4], 11.4 µM; in experiment [5], 29.3 µM; in [6], 12.1 µM. In addition, the results for the TGI in experiment [7], in experiment [8] and in [9] were 20.3 µM, 6.43 µM and 43.3 µM, respectively.
Consider `CC1C(NNc2ccccc2)Oc2cc3c(cc2C1c1ccccc1O)OCO3` (stereo unspecified), for which the TGI in [1] is 13.1 µM; in experiment [2] it was 16.8 µM; in experiment [3], 11.2 µM; in [4], 19.2 µM; in experiment [5], 26.5 µM; in experiment [6], 4.56 µM. Also, the TGI was 26.6 µM in experiment [7], 11.6 µM in experiment [8] and 20.5 µM in experiment [9].
Turning to `N#C/C(=C/n1c(=S)[nH]c2ccc([N+](=O)[O-])cc21)C(N)=O`, the TGI in experiment [1], in [2], in experiment [3], in [4], in [5] and in experiment [6] was > 100 µM each time. The TGI in experiment [7], in experiment [8] and in experiment [9] was > 100 µM each time.
Consider `Cc1cc2c(O)c(c1)CN(CC(=O)O)Cc1cc(C)cc(c1O)CN(CC(=O)O)Cc1cc(C)cc(c1O)CN(CC(=O)O)C2`, for which the TGI in experiment [1], in experiment [2], in [3], in experiment [4], in experiment [5] and in [6] was > 100 µM throughout. Besides, the TGI in experiment [7], in [8] and in experiment [9] was > 100 µM each time.
With `CC(=O)OCC1OC(n2c(-c3ccccc3)c(N=Nc3ccccc3)c(C)c(C#N)c2=S)C(OC(C)=O)C(OC(C)=O)C1OC(C)=O` (stereo unspecified), the TGI in experiment [1], in experiment [2], in experiment [3], in experiment [4], in [5] and in experiment [6] was > 100 µM in each case. The TGI in experiment [7], in experiment [8] and in experiment [9] was > 100 µM in each case.
For the molecule `N#C/C(C(=O)Nc1ccc(Cl)cc1)=C(/N)N1CCCC1`, the TGI in [1], in experiment [2], in experiment [3], in [4], in experiment [5] and in experiment [6] was > 100 µM throughout. For the same molecule, the TGI in experiment [7], in [8] and in experiment [9] was > 100 µM throughout.
Consider `COc1cc(C(c2c(O)c3ccccc3oc2=O)c2c(O)c3ccccc3oc2=O)cc(Br)c1O`, for which the TGI was 31.2 µM in experiment [1]; 38.7 µM in experiment [2]; 31.4 µM in experiment [3]; 64.8 µM in experiment [4]; 42.7 µM in experiment [5]; 33.7 µM in [6]. In addition, the TGI in experiment [7] stood at 59.2 µM; in [8] it was 58.3 µM; in experiment [9], 33 µM.
Take `Cc1cc(S(=O)(=O)Nc2n[nH]c(-c3ccccn3)n2)c(S)cc1Cl`: the TGI was 54.1 µM in [1]; > 100 µM in experiment [2]; 44.5 µM in experiment [3]; > 100 µM in [4]; 54.3 µM in experiment [6]; > 100 µM in [7]. Moreover, the TGI in [8] and in experiment [9] was > 100 µM in each case.
Take `Cc1cc(C)c2c(=O)cc(-c3cccc(F)c3)[nH]c2n1`: the TGI in [1] is > 100 µM; in experiment [2], 13.3 µM; in experiment [3], > 100 µM; in experiment [4], > 53.5 µM; in [5], 11.2 µM; in experiment [6], 4.54 µM. In addition, the results for the TGI in experiment [7], in experiment [8] and in experiment [9] were 92.9 µM, 0.122 µM and > 100 µM, respectively.
As to `COC(=O)C1C(C(=O)OC)C2(OC(c3ccc(Cl)cc3)=CC2=O)C12OC(c1ccc(Cl)cc1)=CC2=O` (stereo unspecified), the TGI in [1] is 39.4 µM; in experiment [3], 42.8 µM; in experiment [4], 49.2 µM; in experiment [5] it was 52.2 µM; in experiment [6], 39.2 µM; in experiment [7], > 100 µM. The figures for the TGI in experiment [8] and in [9] were 10.9 µM and 48.8 µM, respectively.
`COc1cc(CC(C)NC(C)=O)cc(OC)c1` (stereo unspecified): the TGI in experiment [1], in experiment [2], in experiment [3], in experiment [4], in experiment [5] and in experiment [6] was > 100 µM throughout. Moreover, the TGI in experiment [7], in experiment [8] and in experiment [9] was > 100 µM throughout.
Consider `CSC(SC)=C(C(=O)O)P(=O)(O)O`, for which the TGI in experiment [1], in experiment [2], in [3], in experiment [4], in experiment [5] and in experiment [6] was > 100 µM throughout. Besides, the TGI in experiment [7], in [8] and in [9] was > 100 µM in each case.
On to `CCOc1ccc(Nc2nc(N)nc(N)c2N)cc1`, for which the TGI was > 100 µM in [1]; 73.5 µM in [2]; > 100 µM in [3]; > 100 µM in experiment [4]; > 100 µM in experiment [5]; 46.3 µM in experiment [6]. For the same molecule, the TGI in [7] is > 100 µM; in experiment [8], 59.3 µM; in experiment [9], > 100 µM.
Turning to `C/C=C(/C)C(=O)OC1CC(C)[C@H]2CC(=O)C(C)=C2CC1C(C)(C)OC(C)=O` (stereo partly specified), the TGI was > 100 µM in [1]; 91.6 µM in [2]; 63.8 µM in experiment [3]; 76.8 µM in experiment [4]; > 100 µM in experiment [5]; 41 µM in [6]. The TGI in experiment [7] was > 100 µM; in experiment [8] it was 78.9 µM; in experiment [9], 51.6 µM.
For `O=S(=O)(c1cc(Cl)ccc1Cl)n1ccnc1`, the TGI in experiment [1] was > 100 µM; in [2], > 100 µM; in experiment [3] it was > 100 µM; in experiment [4], > 100 µM; in experiment [5], 52.8 µM; in experiment [6], 39.3 µM. Further, the TGI in experiment [7] is > 100 µM; in [8], 70.9 µM; in experiment [9], > 100 µM.
As for `CCCCC1=C(C(=O)N2CCOCC2)C2(OCCO2)C1=O`, the TGI in experiment [1] is 34.8 µM; in experiment [2] it was 55.9 µM; in experiment [3], 43.8 µM; in experiment [4], > 100 µM; in experiment [5], 51.1 µM; in experiment [6], 46.5 µM. In addition, the TGI in experiment [7] was 94.8 µM; in experiment [8] it was > 100 µM; in experiment [9], 89.9 µM.
As to `COc1ccc(C2C3=C(COC3=O)Oc3cc4c(cc32)OCO4)c(OC)c1` (stereo unspecified), the TGI in experiment [1] is > 100 µM; in experiment [2], > 100 µM; in [3], > 100 µM; in experiment [4], > 100 µM; in experiment [5], > 100 µM; in experiment [6] it was 43.6 µM. The TGI in experiment [7], in experiment [8] and in experiment [9] was > 100 µM in each case.
Turning to `COc1ccc(Nc2nc(N)c(C(=O)c3c[nH]c4ccccc34)s2)cc1`, the TGI in [1] was > 100 µM; in experiment [2], 26.1 µM; in experiment [3], 16.4 µM; in experiment [4] it was 20.9 µM; in experiment [5], > 95 µM; in [6] it was > 36.9 µM. Besides, the results for the TGI in experiment [7], in experiment [8] and in [9] were > 91.6 µM, 0.796 µM and > 91.4 µM, respectively.
As for `COC(=O)C1CCc2sc3ncnc(Nc4cn[nH]c4C(=O)Nc4ccc(CN5CCN(C)CC5)cc4)c3c21` (stereo unspecified), the GI50 in [1] is 0.232 µM; in experiment [2] it was 0.207 µM; in experiment [3] it was 0.708 µM; in experiment [4], 0.324 µM; in [5] it was 0.506 µM; in experiment [6], 0.371 µM. Moreover, the GI50 is 0.285 µM in [8] and 1.19 µM in experiment [9]. Moreover, the TGI in experiment [1] was 10.1 µM; in experiment [2] it was 2.63 µM; in experiment [3], 2.14 µM; in experiment [4], 0.991 µM; in experiment [5] it was 2.67 µM; in experiment [6], 1.49 µM. For the same molecule, the TGI in experiment [8] worked out at 0.815 µM; in [9], 2.8 µM.
For `Cc1ccc(C(=O)N/N=C(\N=Nc2ccccc2)c2ccc(N(C)C)cc2)cc1`, the TGI in experiment [2], in experiment [3], in experiment [4], in experiment [5], in experiment [6] and in [7] was > 100 µM each time. Moreover, the TGI in experiment [8] and in [9] was > 100 µM in each case.
Consider `COc1ccc(/C=c2\s/c(=C3/SC(=S)N(c4ccccc4)C3=O)n(-c3ccccc3)c2=O)cc1`, for which the TGI in [1] is 28.8 µM; in experiment [2], > 100 µM; in experiment [3] it was > 100 µM; in experiment [4], 72.8 µM; in experiment [5] it was > 100 µM; in [6], > 100 µM. Moreover, the figures for the TGI in experiment [7] and in experiment [8] were > 100 µM and 31.8 µM, respectively.
For the molecule `CCc1c(CNc2ccc(C(=O)NC(CC(=O)O)C(=O)O)cc2)ccc2nc(N)nc(N)c12` (stereo unspecified), the TGI in [1], in [2], in experiment [3], in experiment [4], in [5] and in [6] was > 1000 µM throughout. Moreover, the TGI in [7] and in experiment [8] was > 1000 µM in each case. Moreover, the GI50 was 0.285 µM in experiment [6] and > 1000 µM in experiment [7].
Take `CCC(O)(Cc1ccc(OC)cc1)c1ccc(OC)cc1` (stereo unspecified): the TGI in [1], in experiment [2], in experiment [3], in experiment [4], in experiment [5] and in [6] was > 100 µM in each case. Further, the TGI in experiment [8] and in experiment [9] was > 100 µM throughout.
In the case of `O=C1C=CC(=O)N1n1c(-c2ccccc2)n[nH]c1=O`, the TGI in [3], in experiment [4], in experiment [5], in experiment [6], in experiment [8] and in experiment [9] was > 100 µM each time.
